Test results as given in PubChem BioAssay AID1963845 (Molecular Pharmacology Branch, DTP, NCI, 2024).
pIC50: −log10 of the molar value.

Tested on: 429239-143-T-J1-PDC complex spheroid viability
Assay: Anticancer human tumor 429239-143-T-J1-PDC patient-derived small cell lung carcinoma cell line growth inhibition [POLQ]
Conditions: for pIC50: curve of first compound; for viability, T/C: stronger effect = lower value; active means viability on the fitted dose curve at most 10% of control; inactive means the rest
Method in brief: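 Three-cell-type spheroids modelling solid tumor plus stroma served as the readout system; POL inhibitors were tested individually and in combination, concentration ranges set by clinical Cmax where known.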

[1] = second compound 0.0316 µM, first compound 0.0316 µM
[2] = second compound 0.0316 µM, first compound 0.1 µM
[3] = second compound 0.0316 µM, first compound 0.316 µM
[4] = second compound 0.0316 µM, first compound 1 µM
[5] = second compound 0.0316 µM, first compound 3.16 µM
[6] = second compound 0.0316 µM, first compound 10 µM
[7] = second compound 0.1 µM, first compound 0.0316 µM
[8] = second compound 0.1 µM, first compound 0.1 µM
[9] = second compound 0.1 µM, first compound 0.316 µM
[10] = second compound 0.1 µM, first compound 1 µM
[11] = second compound 0.1 µM, first compound 3.16 µM
[12] = second compound 0.1 µM, first compound 10 µM
[13] = second compound 0.316 µM, first compound 0.0316 µM
[14] = second compound 0.316 µM, first compound 0.1 µM
[15] = second compound 0.316 µM, first compound 0.316 µM
[16] = second compound 0.316 µM, first compound 1 µM
[17] = second compound 0.316 µM, first compound 3.16 µM
[18] = second compound 0.316 µM, first compound 10 µM
[19] = second compound 1 µM, first compound 0.0316 µM
[20] = second compound 1 µM, first compound 0.1 µM
[21] = second compound 1 µM, first compound 0.316 µM
[22] = second compound 1 µM, first compound 1 µM
[23] = second compound 1 µM, first compound 3.16 µM
[24] = second compound 1 µM, first compound 10 µM
[25] = second compound 3.16 µM, first compound 0.0316 µM
[26] = second compound 3.16 µM, first compound 0.1 µM
[27] = second compound 3.16 µM, first compound 0.316 µM
[28] = second compound 3.16 µM, first compound 1 µM
[29] = second compound 3.16 µM, first compound 3.16 µM
[30] = second compound 3.16 µM, first compound 10 µM
[31] = second compound 10 µM, first compound 0.0316 µM
[32] = second compound 10 µM, first compound 0.1 µM
[33] = second compound 10 µM, first compound 0.316 µM
[34] = second compound 10 µM, first compound 1 µM
[35] = second compound 10 µM, first compound 3.16 µM
[36] = second compound 10 µM, first compound 10 µM
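Further: luminescence signal used as surrogate measure of viable cells; spheroids exposed to compounds for seven days before readout.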
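Wherever viability, T/C is given: 100% = DMSO vehicle control viability as luminescence relative to vehicle.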

CCCS(=O)(=O)Nc1ccc(F)c(C(=O)c2c[nH]c3ncc(-c4ccc(Cl)cc4)cc23)c1F + COC1C(OC(N)=O)C(O)C(Oc2ccc3c(O)c(NC(=O)c4ccc(O)c(CC=C(C)C)c4)c(=O)oc3c2C)OC1(C)C
5.01: pIC50 (second compound 0.316 µM)
< 5.00: pIC50 (second compound 0.0316 µM) | pIC50 (second compound 0.1 µM) | pIC50 (second compound 3.16 µM)
5.05: pIC50 (second compound 1 µM) | pIC50 (second compound 10 µM)
inactive: viability, T/C [1] 105% | viability, T/C [2] 90.4% | viability, T/C [3] 101% | viability, T/C [4] 102% | viability, T/C [5] 98.6% | viability, T/C [6] 50.5% | viability, T/C [7] 95.7% | viability, T/C [8] 97.4% | viability, T/C [9] 110% | viability, T/C [10] 102% | viability, T/C [11] 92.4% | viability, T/C [12] 52.5% | viability, T/C [13] 98.8% | viability, T/C [14] 96.3% | viability, T/C [15] 106% | viability, T/C [16] 87.6% | viability, T/C [17] 109% | viability, T/C [18] 48.9% | viability, T/C [19] 104% | viability, T/C [20] 100% | viability, T/C [21] 94.5% | viability, T/C [22] 98.8% | viability, T/C [23] 86.2% | viability, T/C [24] 46% | viability, T/C [25] 109% | viability, T/C [26] 96.3% | viability, T/C [27] 106% | viability, T/C [28] 83.1% | viability, T/C [29] 98.5% | viability, T/C [30] 53.1% | viability, T/C [31] 92.8% | viability, T/C [32] 101% | viability, T/C [33] 104% | viability, T/C [34] 84.7% | viability, T/C [35] 119% | viability, T/C [36] 44.1%

CNCc1ccc(-c2[nH]c3cc(F)cc4c3c2CCNC4=O)cc1 + COC1C(OC(N)=O)C(O)C(Oc2ccc3c(O)c(NC(=O)c4ccc(O)c(CC=C(C)C)c4)c(=O)oc3c2C)OC1(C)C
inactive: viability, T/C [1] 95.1% | viability, T/C [2] 75% | viability, T/C [3] 87.1% | viability, T/C [4] 66.5% | viability, T/C [5] 43.2% | viability, T/C [6] 23.2% | viability, T/C [7] 85.5% | viability, T/C [8] 101% | viability, T/C [9] 80.6% | viability, T/C [10] 65.9% | viability, T/C [11] 46.3% | viability, T/C [12] 21.4% | viability, T/C [13] 102% | viability, T/C [14] 85.5% | viability, T/C [15] 74.5% | viability, T/C [16] 69.6% | viability, T/C [17] 49.3% | viability, T/C [18] 21.4% | viability, T/C [19] 87.5% | viability, T/C [20] 86.9% | viability, T/C [21] 79.3% | viability, T/C [22] 72.6% | viability, T/C [23] 46% | viability, T/C [24] 19.7% | viability, T/C [25] 87.4% | viability, T/C [26] 88.3% | viability, T/C [27] 87.1% | viability, T/C [28] 59.8% | viability, T/C [29] 40.3% | viability, T/C [30] 20% | viability, T/C [31] 75.3% | viability, T/C [32] 81.3% | viability, T/C [33] 72.2% | viability, T/C [34] 55.1% | viability, T/C [35] 39.8% | viability, T/C [36] 19%
5.62: pIC50 (second compound 0.1 µM)
5.64: pIC50 (second compound 0.0316 µM)
5.57: pIC50 (second compound 1 µM)
5.74: pIC50 (second compound 3.16 µM)
5.59: pIC50 (second compound 0.316 µM)
5.80: pIC50 (second compound 10 µM)
